Test results from PubChem BioAssay AID2060619 (Molecular Pharmacology Branch, DTP, NCI, 2025).
Where “and” joins values, the source holds several entries; their conditions need not be identical. Equal values may be shown once. Values belong to the molecule of their own block, whether it stands above or below them.

System: 323965-272-R-J2-PDC complex spheroid viability
Assay: Anticancer human tumor 323965-272-R-J2-PDC patient-derived pancreatic carcinoma cell line growth inhibition [CLK]
Settings: for viability, T/C: stronger effect = lower value
From the text: A high-throughput screen of multi-cell type tumor spheroids was designed to identify active combinations of […] and targeted small molecules. Complex spheroids include a stromal component modeled by human endothelial cells (HUVEC) and fibroblasts modeled by human mesenchymal stem cells (MSCs). The concentration ranges selected for each drug and investigational agent were based upon clinically achievable concentrations if the clinical Cmax of the agent was known.
Compounds. The drugs and investigational agents: cirtuvivint (SM08502; NSC835563), CC-671 (NSC850746), vemurafenib (NSC761431), tapotoclax (NSC804041), sotorasib (NSC818433), adagrasib (NSC831453), MRTX-1133 (NSC836407), BAY2416964 (NSC825713), copanlisib (NSC816437), inavolisib (NSC800729), abemaciclib (NSC768073), osimertinib (NSC779217), entinostat (NSC756642), eltanexor (KPT-8602, NSC794443), venetoclax (NSC766270), ceralasertib (NSC777638), bortezomib (NSC756655), olaparib (NSC753686), talazoparib (NSC767125), alisertib (NSC759677), peposertib (NSC802822), gemcitabine (NSC613327), 5-fluorouracil (NSC19893), SN-38 (NSC673596), oxaliplatin (NSC266046), paclitaxel (NSC125973), and doxorubicin (NSC123127), were obtained from the National Cancer Institute (NCI) Developmental Therapeutics Program Chemical Repository. The FDA-approved anticancer drug set is available from the Developmental Therapeutics Program at https://dtp.cancer.gov/organization/dscb/obtaining/available plates.htm. […] The stock solutions were prepared in dimethyl sulfoxide (DMSO, Sigma-Aldrich, St. Louis, MO, cat. D2650), except for the platinum complexes which were prepared in saline (Quality Biological, Gaithersburg, MD, cat. 114-055-101), at 800-fold the tested concentration and stored at -70 degrees C prior to their use. All drugs and investigational agents were tested over a range starting from a high concentration at or near the clinical Cmax and decreasing in half-log increments. If the clinical Cmax for an agent had not been determined, the highest concentration tested was 10 microM.
Cell Culture. All cells were maintained in an incubator at 37 degrees C and 5% CO2 with 95% humidity. The PDC lines were cultured according to standard operating procedures established by the NCI PDMR. Briefly, all PDCs were thawed and cultured in Matrigel-coated flasks prepared with a working solution of 1X Ham's F-12 nutrient mix, without supplementation (Invitrogen, Waltham, MA, cat. 11765054), 100 U/mL penicillin-streptomycin (Invitrogen, cat. 15140122), and 2.5% Matrigel (Corning Inc., Corning, NY, cat. 354248) for the first three passages. The 947758-054-R-J2-PDC line was cultured in 6B/Colon 1A media, which includes advanced DMEM/F-12 (Thermo Fisher Scientific, cat. 12634028), 10 mM HEPES (Thermo Fisher Scientific, cat. 15630080), 1X GlutaMAX supplement (Thermo Fisher Scientific, cat. 35050061), 0.1 mg/mL primocin (InvivoGen, cat. ant-pm-2), 10% defined fetal bovine serum, heat inactivated (HyClone Laboratories Inc., cat. SH30070.03HI), 1.25 mM N-Acetyl-L-cysteine (Sigma-Aldrich, cat. A9165), 10 mM nicotinamide (Sigma-Aldrich, cat. N0636), 1X B-27 supplement (Thermo Fisher Scientific, cat. 17504044), 1X N-2 supplement (Thermo Fisher Scientific, cat. 17502048), and 10 microM Y-27632 dihydrochloride (Tocris Bioscience, cat. 1254). The 876862-298-R-J1-PDC was cultured in 6E media, which includes all 6B/Colon 1A media components plus 50% L-WRN conditioned media (ATCC, cat. CRL-3276), 50 ng/mL recombinant human EGF recombinant protein (hEGF; Thermo Fisher Scientific, cat. PHG0311), 10 ng/mL recombinant human fibroblast growth factor 10 (hGFG-10; PeproTech, cat. 100-26), 1 ng/mL recombinant human fibroblast growth factor 2 (hFGF-2; PeproTech, cat. 100-18B), and 1 µM prostaglandin E2 (PGE2; Tocris, cat. 2296). The 227483-062-R1-J1-PDC line was cultured in Panc media, containing all 6E components except hFGF-2, with the addition of 500 nM SB-431542 (Selleckchem, cat. S1067) and 10 nM gastrin (Tocris, cat. 3006). […]

[1] = curve of first compound, second compound 0.0316 µM
[2] = curve of first compound, second compound 0.1 µM
[3] = curve of first compound, second compound 0.316 µM
[4] = curve of first compound, second compound 1 µM
[5] = curve of first compound, second compound 3.16 µM
[6] = curve of first compound, second compound 10 µM
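Also: spheroids exposed to agents for seven days before readout.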
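For viability, T/C in this document: percent of DMSO vehicle control wells so 100% = untreated growth.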

Compound: CC(C)CC(NC(=O)C(Cc1ccccc1)NC(=O)c1cnccn1)B(O)O (stereo not drawn) + CN1CCN(c2cc(C(=O)Nc3cc4cc(-c5cnn(C)c5)ccc4cn3)ccn2)CC1
- IC50 [1]: 4.13 nM
- IC50 [2]: 4.13 nM
- IC50 [3]: < 0.949 nM
- IC50 [4]: < 0.949 nM
- IC50 [5]: < 0.949 nM
- IC50 [6]: < 0.949 nM
- viability, T/C (second compound 0.0316 µM, first compound 0.000949 µM): 102%
- viability, T/C (second compound 0.0316 µM, first compound 0.003 µM): 67.1%
- viability, T/C (second compound 0.0316 µM, first compound 0.00949 µM): 5.27%
- viability, T/C (second compound 0.0316 µM, first compound 0.03 µM): 0.67%
- viability, T/C (second compound 0.0316 µM, first compound 0.0949 µM): 0.27%
- viability, T/C (second compound 0.0316 µM, first compound 0.3 µM): 0.2%
- viability, T/C (second compound 0.1 µM, first compound 0.000949 µM): 70.2%
- viability, T/C (second compound 0.1 µM, first compound 0.003 µM): 67.7%
- viability, T/C (second compound 0.1 µM, first compound 0.00949 µM): 4.08%
- viability, T/C (second compound 0.1 µM, first compound 0.03 µM): 0.54%
- viability, T/C (second compound 0.1 µM, first compound 0.0949 µM): 0.24%
- viability, T/C (second compound 0.1 µM, first compound 0.3 µM): 0.21%
- viability, T/C (second compound 0.316 µM, first compound 0.000949 µM): 27.6%
- viability, T/C (second compound 0.316 µM, first compound 0.003 µM): 27.3%
- viability, T/C (second compound 0.316 µM, first compound 0.00949 µM): 2.6%
- viability, T/C (second compound 0.316 µM, first compound 0.03 µM): 0.27%
- viability, T/C (second compound 0.316 µM, first compound 0.0949 µM): 0.18%
- viability, T/C (second compound 0.316 µM, first compound 0.3 µM): 0.3%
- viability, T/C (second compound 1 µM, first compound 0.000949 µM): 5.63%
- viability, T/C (second compound 1 µM, first compound 0.003 µM): 1.53%
- viability, T/C (second compound 1 µM, first compound 0.00949 µM): 0.21%
- viability, T/C (second compound 1 µM, first compound 0.03 µM): 0.19%
- viability, T/C (second compound 1 µM, first compound 0.0949 µM): 0.2%
- viability, T/C (second compound 1 µM, first compound 0.3 µM): 1.89%
- viability, T/C (second compound 3.16 µM, first compound 0.000949 µM): 5.74%
- viability, T/C (second compound 3.16 µM, first compound 0.003 µM): 2.25%
- viability, T/C (second compound 3.16 µM, first compound 0.00949 µM): 1.98%
- viability, T/C (second compound 3.16 µM, first compound 0.03 µM): 0.31%
- viability, T/C (second compound 3.16 µM, first compound 0.0949 µM): 0.19%
- viability, T/C (second compound 3.16 µM, first compound 0.3 µM): 2.14%
- viability, T/C (second compound 10 µM, first compound 0.000949 µM): 4.58%
- viability, T/C (second compound 10 µM, first compound 0.003 µM): 2.17%
- viability, T/C (second compound 10 µM, first compound 0.00949 µM): 0.45%
- viability, T/C (second compound 10 µM, first compound 0.03 µM): 0.32%
- viability, T/C (second compound 10 µM, first compound 0.0949 µM): 5.38%
- viability, T/C (second compound 10 µM, first compound 0.3 µM): 2.98%

- IC50 (curve of compound): 4.54 nM and 2.98 nM
Compound: CC(C)CC(NC(=O)C(Cc1ccccc1)NC(=O)c1cnccn1)B(O)O (stereo not drawn)
- viability, T/C (compound 0.000949 µM): 107% and 115%
- viability, T/C (compound 0.003 µM): 75.1% and 49.5%
- viability, T/C (compound 0.00949 µM): 5.4% and 2.55%
- viability, T/C (compound 0.03 µM): 0.66% and 1.05%
- viability, T/C (compound 0.0949 µM): 0.26% and 0.62%
- viability, T/C (compound 0.3 µM): 2% and 3.78%

- IC50 (curve of compound): > 10000 nM
Compound: O=c1[nH]cc(F)c(=O)[nH]1
- viability, T/C (compound 0.0316 µM): 116% and 95.3%
- viability, T/C (compound 0.1 µM): 105% and 91.3%
- viability, T/C (compound 0.316 µM): 111% and 103%
- viability, T/C (compound 1 µM): 96.9% and 96.8%
- viability, T/C (compound 3.16 µM): 67.9% and 76.6%
- viability, T/C (compound 10 µM): 51.1% and 52.5%

Compound: COc1c(OCCCN2CCOCC2)ccc2c3n(c(=NC(=O)c4cnc(N)nc4)nc12)CCN3 + CN1CCN(c2cc(C(=O)Nc3cc4cc(-c5cnn(C)c5)ccc4cn3)ccn2)CC1
- IC50 [1]: 40.1 nM
- IC50 [2]: 18.7 nM
- IC50 [3]: < 3.16 nM
- IC50 [4]: < 3.16 nM
- IC50 [5]: < 3.16 nM
- IC50 [6]: < 3.16 nM
- viability, T/C (second compound 0.0316 µM, first compound 0.00316 µM): 85.5%
- viability, T/C (second compound 0.0316 µM, first compound 0.01 µM): 77.1%
- viability, T/C (second compound 0.0316 µM, first compound 0.0316 µM): 50%
- viability, T/C (second compound 0.0316 µM, first compound 0.1 µM): 39.6%
- viability, T/C (second compound 0.0316 µM, first compound 0.316 µM): 28.8%
- viability, T/C (second compound 0.0316 µM, first compound 1 µM): 25.9%
- viability, T/C (second compound 0.1 µM, first compound 0.00316 µM): 64.5%
- viability, T/C (second compound 0.1 µM, first compound 0.01 µM): 63%
- viability, T/C (second compound 0.1 µM, first compound 0.0316 µM): 39.3%
- viability, T/C (second compound 0.1 µM, first compound 0.1 µM): 26%
- viability, T/C (second compound 0.1 µM, first compound 0.316 µM): 21.4%
- viability, T/C (second compound 0.1 µM, first compound 1 µM): 19.3%
- viability, T/C (second compound 0.316 µM, first compound 0.00316 µM): 23.6%
- viability, T/C (second compound 0.316 µM, first compound 0.01 µM): 21.5%
- viability, T/C (second compound 0.316 µM, first compound 0.0316 µM): 15.9%
- viability, T/C (second compound 0.316 µM, first compound 0.1 µM): 15.7%
- viability, T/C (second compound 0.316 µM, first compound 0.316 µM): 12.2%
- viability, T/C (second compound 0.316 µM, first compound 1 µM): 11.9%
- viability, T/C (second compound 1 µM, first compound 0.00316 µM): 3.49%
- viability, T/C (second compound 1 µM, first compound 0.01 µM): 2.87%
- viability, T/C (second compound 1 µM, first compound 0.0316 µM): 2.38%
- viability, T/C (second compound 1 µM, first compound 0.1 µM): 2.22%
- viability, T/C (second compound 1 µM, first compound 0.316 µM): 1.51%
- viability, T/C (second compound 1 µM, first compound 1 µM): 0.92%
- viability, T/C (second compound 3.16 µM, first compound 0.00316 µM): 3.25%
- viability, T/C (second compound 3.16 µM, first compound 0.01 µM): 4.48%
- viability, T/C (second compound 3.16 µM, first compound 0.0316 µM): 3.03%
- viability, T/C (second compound 3.16 µM, first compound 0.1 µM): 1.39%
- viability, T/C (second compound 3.16 µM, first compound 0.316 µM): 1.26%
- viability, T/C (second compound 3.16 µM, first compound 1 µM): 0.84%
- viability, T/C (second compound 10 µM, first compound 0.00316 µM): 4.13%
- viability, T/C (second compound 10 µM, first compound 0.01 µM): 3.87%
- viability, T/C (second compound 10 µM, first compound 0.0316 µM): 3.7%
- viability, T/C (second compound 10 µM, first compound 0.1 µM): 2.13%
- viability, T/C (second compound 10 µM, first compound 0.316 µM): 1.69%
- viability, T/C (second compound 10 µM, first compound 1 µM): 2.03%
